Assay results taken from patent US7138361B2, “Herbicidal heterocycles” (E. I. du Pont de Nemours and Company, priority 2000, dated 2006).

Key:
Format in all cases: in vivo
[1] = tested on: Nightshade; assay: Test C preemergence
[2] = tested on: Sunflower; assay: Test C preemergence
[3] = tested on: Surinam grass (Brachiaria decumbens); assay: Test C preemergence
How it was run: (§1)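 Preemergence: seeds sown then treated. Postemergence: plants 2–18 cm, 1- to 4-leaf. Both with surfactant-containing solvent formulation; visual injury scored 0–100 after 12–14 d.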

[4] = tested on: bermudagrass (Cynodon dactylon); assay: Test C preemergence
How it was run: as §1

[5] = tested on: cocklebur (Xanthium strumarium); assay: Test C preemergence
How it was run: as §1

[6] = tested on: corn (Zea mays); assay: Test C preemergence
How it was run: as §1

[7] = tested on: crabgrass (Digitaria sanguinalis); assay: Test C preemergence
How it was run: as §1

[8] = tested on: giant foxtail (Setaria faberii); assay: Test C preemergence
How it was run: as §1

[9] = tested on: goosegrass (Eleusine indica); assay: Test C preemergence
How it was run: as §1

[10] = tested on: johnsongrass (Sorghum halepense); assay: Test C preemergence
How it was run: as §1

[11] = tested on: kochia (Kochia scoparia); assay: Test C preemergence
How it was run: as §1

[12] = tested on: lambsquarters (Chenopodium album); assay: Test C preemergence
How it was run: as §1

[13] = tested on: morningglory (Ipomoea hederacea); assay: Test C preemergence
How it was run: as §1

[14] = tested on: pigweed (Amaranthus retroflexus); assay: Test C preemergence
How it was run: as §1

[15] = tested on: soybean (Glycine max); assay: Test C preemergence
How it was run: as §1

[16] = tested on: velvetleaf (Abutilon theophrasti); assay: Test C preemergence
How it was run: as §1

[17] = tested on: woolly cupgrass (Eriochloa villosa); assay: Test C preemergence
How it was run: as §1

[18] = tested on: yellow nutsedge (Cyperus esculentus); assay: Test C preemergence
How it was run: as §1

[19] = tested on: barnyardgrass (Echinochloa crus-galli); assay: Test C flooded paddy test; conditions: for Barnyardgrass plant response rating: Flooded Paddy, scale 0 to 100, 0 no effect, 100 complete control; for Plant response rating, Barnyardgrass: flooded paddy test, scale 0 to 100 (0 no effect, 100 complete control)
How it was run: (§2)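 Visual ratings (0 = no effect, 100 = complete control) were made 12–14 days after treatment, relative to greenhouse controls. Plants in the flooded paddy test were rice, smallflower flatsedge, duck salad and barnyardgrass, treated at the 2-leaf stage.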

[20] = tested on: duck salad (Heteranthera limosa); assay: Test C flooded paddy test; conditions: for Ducksalad plant response rating: Flooded Paddy, scale 0 to 100, 0 no effect, 100 complete control; for Plant response rating, Ducksalad: flooded paddy test, scale 0 to 100 (0 no effect, 100 complete control)
How it was run: as §2

[21] = tested on: smallflower flatsedge (Cyperus difformis); assay: Test C flooded paddy test; conditions: for Flatsedge plant response rating: Flooded Paddy, scale 0 to 100, 0 no effect, 100 complete control; for Plant response rating, Flatsedge: flooded paddy test, scale 0 to 100 (0 no effect, 100 complete control)
How it was run: as §2

[22] = tested on: Sunflower; assay: Test C preemergence; conditions: Rate 250 g/ha, visual evaluation after 12 to 14 days
[23] = Rate 62 g/ha, scale 0 to 100, 0 no effect, 100 complete control
[24] = Preemergence, Rate 500 g/ha, scale 0 to 100
[25] = preemergence, Rate 250 g/ha, visual evaluation after 12 to 14 days
[26] = preemergence, Rate 125 g/ha, scale 0 to 100, 0 no effect, 100 complete control

CCC(C)c1ccn(C2SCN(c3cccc(C(F)(F)F)c3)C2=O)n1 (stereo not shown) [Compound 20] was tested, and the “Plant response rating, Nightshade” value [1, 23] was 30, the “Plant response rating, Nightshade” value ([1]; Rate 125 g/ha, scale 0 to 100, 0 no effect, 100 complete control) was 70 and the “Plant response rating, Nightshade” value ([1]; Rate 500 g/ha, scale 0 to 100) was 90. For the same compound, the “Plant response rating, Sunflower” value [2, 23] was 0, the “Plant response rating, Sunflower” value ([2]; Rate 500 g/ha, scale 0 to 100) was 70 and the “Plant response rating, Surinam grass” value [3, 24] was 40. The “Plant response rating, Surinam grass” value [3, 23] was 0, the “Plant response rating (0 to 100), Surinam grass” value [3, 25] was 0 and the “Plant response rating, Surinam grass” value [3, 26] was 0. The “Plant response rating, Bermudagrass” value [4, 24] was 100, the “Plant response rating, Bermudagrass” value [4, 23] was 70 and the “Plant response rating (0 to 100 where 0 is no effect and 100 is complete control), Bermudagrass” value [4, 25] was 100. For the same compound, the “Plant response rating, Bermudagrass” value [4, 26] was 100, the “Plant response rating, Cocklebur” value [5, 24] was 50 and the “Plant response rating, Cocklebur” value [5, 23] was 0. For the same compound, the “Plant response rating (0 to 100), Cocklebur” value [5, 25] was 0, the “Plant response rating, Cocklebur” value [5, 26] was 0 and the “Plant response rating, Corn” value [6, 24] was 30. The “Plant response rating, Corn” value [6, 23] was 0, the “Plant response rating (0 to 100), Corn” value [6, 25] was 30 and the “Plant response rating, Corn” value [6, 26] was 30. For the same compound, the “Plant response rating, Crabgrass” value [7, 24] was 100, the “Plant response rating, Crabgrass” value [7, 23] was 0 and the “Plant response rating (0 to 100), Crabgrass” value [7, 25] was 100. The “Plant response rating, Crabgrass” value [7, 26] was 100, the “Plant response rating, Foxtail, Giant” value [8, 24] was 0 and the “Plant response rating, Foxtail, Giant” value [8, 23] was 0. For the same compound, the “Plant response rating (0 to 100), Foxtail, Giant” value [8, 25] was 100, the “Plant response rating, Foxtail, Giant” value [8, 26] was 0 and the “Plant response rating, Goosegrass” value [9, 24] was 100. For the same compound, the “Plant response rating, Goosegrass” value [9, 23] was 80, the “Plant response rating (0 to 100), Goosegrass” value [9, 25] was 100 and the “Plant response rating, Goosegrass” value [9, 26] was 100. For the same compound, the “Plant response rating, Johnsongrass” value [10, 24] was 100, the “Plant response rating, Johnsongrass” value [10, 23] was 0 and the “Plant response rating (0 to 100), Johnsongrass” value [10, 25] was 50. For the same compound, the “Plant response rating, Johnsongrass” value [10, 26] was 20, the “Plant response rating, Kochia” value [11, 24] was 100 and the “Plant response rating, Kochia” value [11, 23] was 90. The “Plant response rating (0 to 100), Kochia” value [11, 25] was 100, the “Plant response rating, Kochia” value [11, 26] was 100 and the “Plant response rating, Lambsquarters” value [12, 24] was 100. The “Plant response rating, Lambsquarters” value [12, 23] was 90, the “Plant response rating (0 to 100), Lambsquarters” value [12, 25] was 100 and the “Plant response rating, Lambsquarters” value [12, 26] was 100. For the same compound, the “Plant response rating, Morningglory” value [13, 24] was 40, the “Plant response rating, Morningglory” value [13, 23] was 0 and the “Plant response rating (0 to 100), Morningglory” value [13, 25] was 40. For the same compound, the “Plant response rating, Morningglory” value [13, 26] was 30, the “Plant response rating, Pigweed” value [14, 24] was 60 and the “Plant response rating, Pigweed” value [14, 23] was 0. The “Plant response rating (0 to 100), Pigweed” value [14, 25] was 100, the “Plant response rating, Pigweed” value [14, 26] was 30 and the “Plant response rating, Soybean” value [15, 24] was 60. The “Plant response rating, Soybean” value [15, 23] was 0, the “Plant response rating (0 to 100), Soybean” value [15, 25] was 60 and the “Plant response rating, Soybean” value [15, 26] was 0. For the same compound, the “Plant response rating, Velvetleaf” value [16, 24] was 20, the “Plant response rating, Velvetleaf” value [16, 23] was 0 and the “Plant response rating (0 to 100), Velvetleaf” value [16, 25] was 20. For the same compound, the “Plant response rating, Velvetleaf” value [16, 26] was 0, the “Plant response rating, Cupgrass, Woolly” value [17, 24] was 100 and the “Plant response rating, Cupgrass, Woolly” value [17, 23] was 0. The “Plant response rating (0 to 100), Cupgrass, Woolly” value [17, 25] was 90, the “Plant response rating, Cupgrass, Woolly” value [17, 26] was 50 and the “Plant response rating, Nutsedge” value [18, 24] was 50. For the same compound, the “Plant response rating, Nutsedge” value [18, 23] was 0, the “Plant response rating (0 to 100), Nutsedge” value [18, 25] was 50 and the “Plant response rating, Nutsedge” value [18, 26] was 0. For the same compound, the “Barnyardgrass plant response rating” value ([19]; Rate 250 g/ha) was 100, the “Barnyardgrass plant response rating” value ([19]; Rate 500 g/ha) was 100 and the “Plant response rating, Barnyardgrass” value ([19]; Rate 62 g/ha) was 70. For the same compound, the “Plant response rating, Barnyardgrass” value ([19]; Rate 125 g/ha) was 100, the “Ducksalad plant response rating” value ([20]; Rate 250 g/ha) was 100 and the “Ducksalad plant response rating” value ([20]; Rate 500 g/ha) was 100. The “Plant response rating, Ducksalad” value ([20]; Rate 62 g/ha) was 100, the “Plant response rating, Ducksalad” value ([20]; Rate 125 g/ha) was 100 and the “Flatsedge plant response rating” value ([21]; Rate 250 g/ha) was 100. For the same compound, the “Flatsedge plant response rating” value ([21]; Rate 500 g/ha) was 100, the “Plant response rating, Flatsedge” value ([21]; Rate 62 g/ha) was 90 and the “Plant response rating, Flatsedge” value ([21]; Rate 125 g/ha) was 100. For the same compound, the “Plant response rating (0 to 100), Sunflower” value [22] was 60.
